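Growth conditions: 96-well plates. Treatment: test compound, 48 hours, 5 concentrations. Analysis: linear interpolation between bracketing concentrations; unreached endpoints set to highest concentration. GI50 marks 50% less growth. TGI denotes the concentration required for complete inhibition of growth.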
Legend:
Test in all cases: growth of human tumour cells (NCI), 48 h
IGROV1 ovarian = tested on: IGROV1 ovarian
DU-145 prostate = tested on: DU-145 prostate
HT29 colon = tested on: HT29 colon
786-0 renal = tested on: 786-0 renal
U251 CNS = tested on: U251 CNS
SW-620 colon = tested on: SW-620 colon
SNB-75 CNS = tested on: SNB-75 CNS
M14 melanoma = tested on: M14 melanoma
SF-295 CNS = tested on: SF-295 CNS
SNB-19 CNS = tested on: SNB-19 CNS

SMILES | GI50 (IGROV1 ovarian) | TGI (IGROV1 ovarian) | GI50 (DU-145 prostate) | TGI (DU-145 prostate) | GI50 (HT29 colon) | TGI (HT29 colon) | GI50 (786-0 renal) | TGI (786-0 renal) | GI50 (U251 CNS) | TGI (U251 CNS) | GI50 (SW-620 colon) | TGI (SW-620 colon) | GI50 (SNB-75 CNS) | TGI (SNB-75 CNS) | GI50 (M14 melanoma) | TGI (M14 melanoma) | GI50 (SF-295 CNS) | TGI (SF-295 CNS) | GI50 (SNB-19 CNS) | TGI (SNB-19 CNS)
Cc1cc2nc3c4cc(O)ccc4n(CCN(C)C)c3nc2cc1C | 474 nM | 2890 nM | 1030 nM | 4310 nM | 475 nM | 2310 nM | 929 nM | 2420 nM | 747 nM | 4460 nM | 404 nM | 1800 nM | 229 nM | 2920 nM | 523 nM | 1910 nM | 573 nM | 2490 nM | 609 nM | 12300 nM
COc1ccc(C2CC(c3cccc(Nc4ccnc5cc(Cl)ccc45)c3)=NN2C=O)cc1 (stereo not given) | 1900 nM | > 100000 nM | 978 nM | > 34900 nM | 349 nM | 1540 nM | 665 nM | 30800 nM | 435 nM | 3980 nM | 333 nM | > 100000 nM | 244 nM | 3010 nM | 374 nM | 21200 nM | 311 nM | 2570 nM | 902 nM | > 100000 nM
CC(C)c1[nH]nc(C(N)=O)c1N=NN(C)C |  | > 100000 nM |  | > 100000 nM |  | > 100000 nM |  | > 100000 nM |  | > 100000 nM |  | > 100000 nM |  | > 100000 nM |  | > 100000 nM |  | > 100000 nM |  | > 100000 nM
CC(=O)c1ccc2c(c1)c1cc(C(C)=O)ccc1n2CCNC(C)C | 341 nM | 6730 nM | 453 nM | 5420 nM | 342 nM | 2180 nM | 456 nM | 3320 nM | 386 nM | 6050 nM | 249 nM | 2340 nM | 383 nM | 2410 nM | 358 nM | 1720 nM | 426 nM | 2620 nM | 300 nM | 1620 nM
CCN(CCCN(C)C)Cc1cc(I)cc(C)c1O | 19800 nM | 45400 nM | 36800 nM | > 100000 nM | 14700 nM | 32400 nM | 18600 nM | 40000 nM | 21200 nM | 43600 nM | 17100 nM | 31900 nM | 16100 nM | 39700 nM | 16600 nM | 31000 nM | 15900 nM | 31900 nM | 26900 nM | 63100 nM
C=C1CC[C@@H]2[C@](C)(COC(C)=O)[C@H](OC(C)=O)CC[C@@]2(C)[C@@H]1CC(Nc1ccc(S(=O)(=O)NC(C)=O)cc1)C1=CCOC1=O (stereo not given in full) | 5310 nM | 15400 nM | 2800 nM | 9740 nM | 1570 nM | 3550 nM | 2440 nM | 7980 nM | 3490 nM | 12000 nM | 1610 nM | 3580 nM | 3080 nM | 12700 nM | 2860 nM | 11900 nM | 11500 nM | 22000 nM | 8190 nM | 18900 nM
O=S(=O)(NCCCNc1nccc(-c2c(-c3ccc(O)cc3)nc3sccn23)n1)c1ccc(F)cc1 | 2850 nM | 8780 nM | 2520 nM | 9560 nM | 1520 nM | 17200 nM | 3220 nM | > 100000 nM | 2920 nM | 12400 nM | 3660 nM | > 100000 nM | 1030 nM | 7910 nM | 64 nM | 2800 nM | 1990 nM | 4560 nM | 4270 nM | > 100000 nM
O=c1c2c(=NCCN3CCCC3)cc3c(=O)n(CCCN4CCOCC4)c(=O)c4c(-c5ccc(CN6CCCC6)cc5)cc(c(O)n1CCCN1CCOCC1)c2c4-3 | 39.9 nM | 1470 nM | 103 nM | 1230 nM | < 11.5 nM | 413 nM | 41.6 nM | 383 nM | 41.2 nM | 1360 nM | 18.6 nM | 342 nM | 58.2 nM | 228 nM | 136 nM | 641 nM | 164 nM | 796 nM | 54 nM | 1200 nM
CCOC(=O)c1ccc(NC(=O)Nc2nncs2)cc1 | 374 nM | 14800 nM | 309 nM | 4110 nM | 189 nM | 10900 nM | 474 nM | 14500 nM | 250 nM | 12700 nM | 81.8 nM | > 100000 nM | 83.2 nM | 19300 nM | 104 nM | 3020 nM | 262 nM | 988 nM | 456 nM | > 61100 nM
C/C(=N\NC(=S)N1CCCCC1)c1ccccn1 | < 10 nM | 5790 nM | 236 nM | 5670 nM | < 10 nM | 4060 nM | 51.7 nM | 2390 nM | < 10.5 nM | 10600 nM | 14.2 nM | 7180 nM | 1660 nM | 6800 nM | < 14.8 nM | 2230 nM | < 11.5 nM | 4500 nM | 158 nM | 14500 nM

From PubChem BioAssay (NCI)
